Data reported in US6495588B2, “Scytonemin and methods of using thereof” (The Regents of the University of California, priority 2000, dated 2002).

What was measured:
[1] = molecular target: T1, GST-Tie2 (Homo sapiens, UniProt Q02763); test: GST-Tie kinase activity assay; assay type: biochemical
T1 construct: Each reaction comprised 5 μg GST-Tie2 (intracellular kinase domain); made in house; host or cells: baculovirus (pAcG1 vector)
Description: To determine the effect of SCY on GST-Tie kinase activity, the following assay was conducted. Clones for the Tie2 receptor were obtained and submitted for confirmatory sequence analysis. Similar to the method described by Huang et al. (1995) Oncogene 11:2097-2103, which is herein incorporated by reference, GST fusion constructs using the human Tie kinase domains and the commercially available pAcG1 vector (Pharmigen, San Diego, Calif.) were constructed. […] The desired restriction fragment was recovered from a partial Tie2 cDNA clone and then subcloned directly into the EcoRI site of the commercially pAcG1 expression vector. These final constructs were transfected into the baculovirus and GST-Tie2 kinase was semipurified using a glutathione affinity column to greater than about 90% purity, as determined via SDS-PAGE analysis and Coomassie Blue staining.
The kinase assay is carried out in 96 well flashplates and in the same kinase buffer used in the PLK1 kinase assays. Each reaction comprised 5 μg GST-Tie2 (intracellular kinase domain), 1 μCi [^33P]-γATP, 30 μM cold ATP in 60 μl. Compounds were in DMSO to give a final concentration of 1% DMSO. The reaction was incubated for 2 hours at 30° C. and terminated by washing the plate five times with 10 μM cold ATP. Reactions were quantitated by using a Packard Top-Count.

[2] = molecular target: T2, GST-Myt1 (Homo sapiens, UniProt Q99640); test: GST-Myt1 autophosphorylation DELFIA assay; assay type: biochemical; conditions: 1 μM ATP
T2 construct: The Myt1 gene was truncated after amino acid 379 and just prior to the membrane-anchoring domain; made in house; host or cells: Sf9 (baculovirus, pFASTBAC)
T2 sequence (Q99640 1-379): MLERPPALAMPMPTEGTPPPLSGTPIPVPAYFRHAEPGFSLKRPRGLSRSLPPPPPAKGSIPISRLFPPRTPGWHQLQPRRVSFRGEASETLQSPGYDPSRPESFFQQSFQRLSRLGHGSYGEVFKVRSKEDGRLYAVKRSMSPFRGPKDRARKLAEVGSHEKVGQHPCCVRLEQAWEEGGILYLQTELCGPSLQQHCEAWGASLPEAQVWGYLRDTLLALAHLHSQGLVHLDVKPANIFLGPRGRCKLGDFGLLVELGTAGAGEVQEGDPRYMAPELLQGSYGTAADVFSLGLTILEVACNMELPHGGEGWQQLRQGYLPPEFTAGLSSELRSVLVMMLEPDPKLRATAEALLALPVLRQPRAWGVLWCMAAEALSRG
Description: To determine the effect of SCY on GST-Myt1 activity, a rh-GST-Myt1 expression vector was constructed to include gst fused to the amino terminus of a truncated human Myt1 gene via a linker comprising a thrombin cleavage site. The Myt1 gene was truncated after amino acid 379 and just prior to the membrane-anchoring domain. The construct was cloned into the baculovirus expression system, pFASTBAC (Gibco-BRL, Gaithersburg, Md.).
Spodoptera frugiperda 9 (Sf9) cells were infected with the virus and grown for three days before purifying as described in Roshak et al. (2000) for GST-PLK1 and GST-cdc25C to 75% purity as determined by SDS-PAGE analysis and Coomassie Blue staining. Dissociative enhanced lanthanide fluorescence immunoassays (DELFIA) (Wallac OY, Turku, Finland) were performed in 50 μl/well with 0.25 μg GST-Myt1, in reaction buffer (50 mM HEPES, pH 7.4, 2 mM Mn(OAc)2, 1 μM ATP, 1 mM DTT (final reaction concentrations)), and SCY (1 nM to 10 μM final reaction concentration). […]
Reactions were allowed to proceed at room temperature with shaking for 20 minutes and were stopped with the addition of EDTA to give a final concentration of 20 mM, and the protein was allowed to bind to the wells for an additional 40 minutes. […] The plate was then read on the 1420 VICTOR plate counter from Wallac, Inc.

T1 sequence (Q02763 824-1096 limits assumed): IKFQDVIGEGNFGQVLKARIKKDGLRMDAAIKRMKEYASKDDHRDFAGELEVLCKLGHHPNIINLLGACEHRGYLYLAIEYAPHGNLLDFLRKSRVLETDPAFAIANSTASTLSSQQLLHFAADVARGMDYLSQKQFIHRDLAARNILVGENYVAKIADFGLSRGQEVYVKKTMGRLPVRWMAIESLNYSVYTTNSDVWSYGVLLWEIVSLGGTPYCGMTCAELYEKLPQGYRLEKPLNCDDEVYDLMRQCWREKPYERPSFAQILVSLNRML

scytonemin
IC50 [1]: > 10 µM | concentration at which GST-Tie2 activity is significantly affected or inhibited ([1]; 30 μM cold ATP): ≥ 10 µM | IC50 [2]: ~1000 nM
